Residues, ends and D or L forms follow the SMILES beside them. Groups on a side chain read outwards from the residue. No end group written: not given here. *: point of attachment. Succinimide(1-Et,3-yl) = CCN1C(=O)CC(*)C1=O
Columns and labels:
mouse NMUR2 = target: T1, mouse NMUR2 (Mus musculus, UniProt Q8BZ39); test: FLIPR calcium mobilization assay, mouse NMUR2 cell line; type: cell-based; conditions: for EC50: mouse NMUR2, FLIPR
T1 construct: expressed in transfected cells; host or cells: FLP-In CHO cells and HEK-293 FLP-In cells (pcDNA5)
Source text: (§1) Human, mouse or rat cDNAs encoding NMUR1 or NMUR2 (as described in Howard et al. Nature 406: 70-74 (2000) were subcloned in pcDNA5 (Invitrogen) and transfected into FLP-In CHO cells and HEK-293 FLP-In cells purchased from Invitrogen (Carlsbad, Calif.) using lipofectamine (Invitrogen). The Flp-In system allows integration and expression of a particular gene of interest at a specific genomic location utilizing the Flp recombinase from yeast. The transfected cells were selected by growth in medium containing 200 μg/mL hygromycin (Invitrogen). Populations were frozen at early passage numbers, and these stocks were used for further studies. Stable clones that expressed the mRNAs were identified functionally by FLIPR as well as by RT-PCR. […] Two different rodent NMUR1 cell lines were thus generated: one with the codon as predicted from the genomic databases and another cell line with an engineered methionine (ATG) as the start codon. The dog NMU receptors were also cloned from intestine RNA (NMUR1) and brain (NMUR2) and stable cell lines were generated as used for the human and rodent cell lines. […] To ensure high levels of expression in a heterologous system, a dog NMUR1 cell line was generated that contains an ATG as the start codon. Additionally, stable cell lines expressing the human receptors were generated in HEK-293/aeq 17 cells which stably express the aequorin gene under the CMV promoter. The human NMUR2 cDNA was cloned into pcDNA3.1 and human NMUR1 was subcloned into pIRES-puro (Clontech, Mountain View, Calif.), after transfection cells were selected in media containing G418 and either hygromycin (NMUR2) or puromycin (NMUR1).
(§2) The NMU receptors signal primarily through Gαq/11 proteins; therefore calcium mobilization assays can be utilized for functional activity.
(§3) Stable cell lines expressing human and or rodent NMUR1 or human NMUR2 receptors are plated at a density of 12,000 cells per well overnight on poly-lysine coated 384-well black-walled plates. The following day, the media is removed from the plates and the cells were subsequently loaded with Fluo-3 (Molecular Probes), a calcium sensitive dye, diluted in FLIPR buffer (1× Hank's buffered saline containing 20 mM HEPES, 0.1% BSA, 2.5 mM probenecid (Sigma) and 1.6 mM TR40). All reagents are from Invitrogen unless otherwise noted. Peptide stocks are resuspended in DMSO at a stock concentration of 2 mM and diluted in FLIPR buffer on the day of the experiment to a 4 μM working stock solution.
(§4) After a 90 minute incubation at room-temperature, cell plates are loaded onto a FLIPR (Molecular Devices) to monitor cellular fluorescence (excitation=488 nm; emission=540 nm) before and after compound/peptide addition. Eight to twelve point dose responses are tested on NMUR-expressing cell lines using FLIPR with 1 μM peptide as the highest dose. The response after peptide addition is taken as the maximum fluorescence units minus the fluorescence immediately prior to stimulation for each well. EC50 values are calculated using GraphPad Prism (San Diego, Calif.) software.
(§5) Percent activity refers to the maximum response at 1 μM compared to the human NMU-25 response at the same concentration.

human NMUR2 = target: T2, human NMUR2 (Homo sapiens, UniProt Q9GZQ4); test: FLIPR calcium mobilization assay, human NMUR2-expressing cell line; type: cell-based; conditions: for EC50: human NMUR2, FLIPR
T2 construct: expressed in transfected cells; host or cells: FLP-In CHO cells and HEK-293 FLP-In cells (pcDNA5)
Source text: as §1, §2, §3, §4, §5

dog NMUR2 = target: T3, dog NMUR2 (Canis lupus familiaris, UniProt A0A8I3MN59); test: FLIPR calcium mobilization assay, dog NMUR2 cell line; type: cell-based; conditions: for EC50: dog NMUR2, FLIPR
T3 construct: expressed in transfected cells
Source text: as §1, §2, §3, §4, §5

mouse NMUR1-ATG = target: T4, mouse NMUR1-ATG (Mus musculus, UniProt O55040); test: FLIPR calcium mobilization assay, mouse NMUR1-ATG cell line; type: cell-based; conditions: for EC50: FLIPR
T4 construct: expressed in transfected cells; host or cells: FLP-In CHO cells and HEK-293 FLP-In cells (pcDNA5)
T4 sequence (O55040 1-428): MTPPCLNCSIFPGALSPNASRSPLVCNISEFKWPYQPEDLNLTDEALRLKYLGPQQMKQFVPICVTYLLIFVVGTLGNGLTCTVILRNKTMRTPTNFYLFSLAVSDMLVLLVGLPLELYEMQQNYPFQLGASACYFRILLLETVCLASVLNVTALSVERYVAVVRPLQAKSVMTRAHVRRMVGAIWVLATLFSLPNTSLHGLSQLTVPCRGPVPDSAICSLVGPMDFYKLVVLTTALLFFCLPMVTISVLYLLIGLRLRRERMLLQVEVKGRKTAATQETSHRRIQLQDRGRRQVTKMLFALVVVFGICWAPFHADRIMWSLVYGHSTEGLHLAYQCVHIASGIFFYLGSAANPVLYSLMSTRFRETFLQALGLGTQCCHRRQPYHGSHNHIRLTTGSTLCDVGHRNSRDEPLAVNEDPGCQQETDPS
Source text: as §1, §2, §3, §4, §5

dog NMUR1-ATG = test: FLIPR calcium mobilization assay, dog NMUR1-ATG cell line; type: cell-based; conditions: for EC50: FLIPR
Source text: as §1, §2, §3, §4, §5

human NMUR1 = target: T5, human NMUR1 (Homo sapiens, UniProt Q9HB89); test: FLIPR calcium mobilization assay, human NMUR1-expressing cell line; type: cell-based; conditions: for EC50: human NMUR1, FLIPR
T5 construct: expressed in transfected cells; host or cells: FLP-In CHO cells and HEK-293 FLP-In cells (pcDNA5)
T5 sequence (Q9HB89 1-426): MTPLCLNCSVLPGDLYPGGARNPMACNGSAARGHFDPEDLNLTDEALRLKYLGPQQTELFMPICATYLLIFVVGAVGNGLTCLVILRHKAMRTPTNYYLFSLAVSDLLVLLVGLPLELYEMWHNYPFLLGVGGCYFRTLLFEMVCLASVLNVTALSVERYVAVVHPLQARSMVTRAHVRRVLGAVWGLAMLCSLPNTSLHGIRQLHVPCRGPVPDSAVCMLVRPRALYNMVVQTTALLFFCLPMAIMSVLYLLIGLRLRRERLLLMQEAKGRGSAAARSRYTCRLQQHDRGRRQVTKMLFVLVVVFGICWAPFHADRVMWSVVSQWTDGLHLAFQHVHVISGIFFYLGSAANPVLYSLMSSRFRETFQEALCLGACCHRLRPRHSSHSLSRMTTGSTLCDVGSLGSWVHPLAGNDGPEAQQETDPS
Source text: as §1, §2, §3, §4, §5

[1] = system: wild-type, Nmur1 knockout, Nmur2 knockout and Nmur1/Nmur2 double knockout mice; test: Acute feeding study in wild-type and Nmur knockout mice; type: in vivo
Method: (§6) Ad libitum fed male diet-induced obese mice obtained from Taconic Farms were weighed and dosed either i.p. or s.c. with NMS or NMU at about 30 minutes prior to the onset of the dark phase of the light cycle and provided with a pre-weighed aliquot of high fat diet (D12492: 60% kcal from fat: Research Diets, Inc.), which was then weighed two and 18 hours after the onset of the initial dark phase. Mice were weighed at the 18 hour (overnight) time point.
NMUR1 knockout (Nmur1−/−) mice were generated using standard homologous recombination techniques. Nmur1 mice were subsequently transferred to Taconic Farms where they were either maintained on a 75% C57BL/6×25% 129S6/SvEv mixed genetic background or backcrossed 6 generations to C57BL/6. NMUR2 knockout (Nmur2−/−) mice were licensed from Deltagen Inc., San Mateo, Calif. and subsequently transferred to Taconic Farms were they were either maintained on a 75% C57BL/6×25% 129/OlaHsd mixed genetic background or backcrossed for 7 generations to C57BL/6. NMUR1 and NMUR2 double knockout (Nmur1&2−/−) mice were generated by crossing N6 Nmur1−/− mice to N7 Nmur2−/− mice. Mice were individually housed in Tecniplast cages in a conventional SPF facility. Mice were initially maintained on a regular chow diet and then early in their life were switched to a high fat diet (D12492) with ad libitum access to water in a 12-h light/12-h dark cycle.
The anorectic effects of NMS1 were mediated by both the NMUR1 and NMUR2 receptors. […] Effects on food intake (FIG. 9A) and body weight (FIG. 9B) are shown.

mice = test: Acute subcutaneous administration of NMS analogs, daily food intake and body weight; type: in vivo; conditions: for overnight food intake: FIG. 6A; for duration of significant reduction of food intake: daily food intake over a four-day period
Method: as §6
The efficacy of various PEGylated NMS analogs were evaluated using the aforementioned assays. The PEGylated NMS analogs evaluated were NMS1 and NMS4 (See Table 1).
NMS1, NMS3, and NMS4 were administered subcutaneously and daily food intake was measured over a four-day period.

[2] = system: male diet-induced obese mice; test: Acute feeding study with NMU and NMS; type: in vivo; conditions: acute peripheral administration (i.p. or s.c.), FIG. 1A
Method: as §6

[3] = maximum response at 1 μM compared to the human NMU-25 response at the same concentration
[4] = acute subcutaneous administration
[5] = acute subcutaneous administration, FIG. 6B

T1 sequence (Q8BZ39 whole entry): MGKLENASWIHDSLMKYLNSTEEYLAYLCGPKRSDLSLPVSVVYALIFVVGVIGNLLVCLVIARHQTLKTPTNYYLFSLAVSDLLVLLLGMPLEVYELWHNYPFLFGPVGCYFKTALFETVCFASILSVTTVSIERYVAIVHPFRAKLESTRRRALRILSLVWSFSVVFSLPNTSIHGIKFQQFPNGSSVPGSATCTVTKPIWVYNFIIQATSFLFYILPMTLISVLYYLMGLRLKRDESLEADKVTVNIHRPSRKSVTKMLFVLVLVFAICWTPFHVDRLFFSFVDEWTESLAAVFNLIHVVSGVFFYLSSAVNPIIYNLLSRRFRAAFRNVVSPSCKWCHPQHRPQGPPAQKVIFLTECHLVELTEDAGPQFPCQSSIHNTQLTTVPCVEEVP
T3 sequence (A0A8I3MN59 1-378): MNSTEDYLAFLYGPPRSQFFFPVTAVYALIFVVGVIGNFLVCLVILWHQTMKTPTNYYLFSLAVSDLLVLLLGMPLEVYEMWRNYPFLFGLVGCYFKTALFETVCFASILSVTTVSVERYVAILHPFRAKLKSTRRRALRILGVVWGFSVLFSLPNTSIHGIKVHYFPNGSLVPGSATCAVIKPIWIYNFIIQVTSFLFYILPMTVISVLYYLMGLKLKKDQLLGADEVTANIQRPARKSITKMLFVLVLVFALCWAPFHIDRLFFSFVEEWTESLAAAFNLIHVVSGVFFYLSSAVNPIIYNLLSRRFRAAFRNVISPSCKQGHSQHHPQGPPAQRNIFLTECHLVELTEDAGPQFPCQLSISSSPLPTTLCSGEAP
T2 sequence (Q9GZQ4 whole entry): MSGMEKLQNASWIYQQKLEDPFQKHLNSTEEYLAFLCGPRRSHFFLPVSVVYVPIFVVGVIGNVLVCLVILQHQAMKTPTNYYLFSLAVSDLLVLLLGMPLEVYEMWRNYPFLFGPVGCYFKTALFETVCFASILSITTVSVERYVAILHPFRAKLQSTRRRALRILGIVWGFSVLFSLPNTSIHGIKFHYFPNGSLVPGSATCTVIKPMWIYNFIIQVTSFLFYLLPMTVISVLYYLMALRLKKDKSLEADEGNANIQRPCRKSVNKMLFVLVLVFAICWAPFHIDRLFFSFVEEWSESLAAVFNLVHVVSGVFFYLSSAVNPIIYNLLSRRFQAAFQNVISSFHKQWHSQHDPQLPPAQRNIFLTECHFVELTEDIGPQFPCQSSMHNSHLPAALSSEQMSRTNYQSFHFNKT

CC[C@H](C)[C@H](NC(=O)[C@H](CSC1CC(=O)N(CC)C1=O)NC(C)=O)C(=O)N[C@@H](CC(C)C)C(=O)N[C@@H](CCC(N)=O)C(=O)N[C@@H](CCCNC(=N)N)C(=O)NCC(=O)N[C@@H](CO)C(=O)NCC(=O)N[C@H](C(=O)N[C@@H](C)C(=O)N[C@@H](C)C(=O)N[C@H](C(=O)N[C@@H](CC(=O)O)C(=O)N[C@@H](Cc1ccccc1)C(=O)N[C@H](C(=O)N[C@@H](CCCCN)C(=O)N[C@@H](CCCCN)C(=O)N[C@@H](CC(=O)O)C(=O)N[C@@H](Cc1c[nH]cn1)C(=O)N[C@H](C(=O)N[C@@H](C)C(=O)N[C@H](C(=O)N[C@@H](Cc1c[nH]c2ccccc12)C(=O)NCC(=O)N[C@@H](CCCNC(=N)N)C(=O)N1CCC[C@H]1C(=O)N[C@@H](Cc1ccccc1)C(=O)N[C@@H](Cc1ccccc1)C(=O)N[C@@H](CC(C)C)C(=O)N[C@@H](Cc1ccccc1)C(=O)N[C@@H](CCCNC(=N)N)C(=O)N1CCC[C@H]1C(=O)N[C@@H](CCCNC(=N)N)C(=O)N[C@@H](CC(N)=O)C(N)=O)[C@@H](C)O)[C@@H](C)O)[C@@H](C)O)C(C)C)[C@@H](C)O (stereo partly shown) [NMS3] (Ac-C(Succinimide(1-Et,3-yl))ILQRGSGTAAVDFTKKDHTATWGRPFFLFRPRN-NH2) was tested, and the EC50 (mouse NMUR2) was 11.9 nM, the “% Activity” value (mouse NMUR2; mouse NMUR2, maximum response at 1 μM compared to the human NMU-25 response at the same concentration) was 108% and the EC50 (human NMUR2) was 18.1 nM. The “% Activity” value (human NMUR2; human NMUR2, maximum response at 1 μM compared to the human NMU-25 response at the same concentration) was 105%, the EC50 (dog NMUR2) was 2.2 nM and the “% Activity” value (dog NMUR2; dog NMUR2, maximum response at 1 μM compared to the human NMU-25 response at the same concentration) was 107%. For the same compound, the EC50 (mouse NMUR1-ATG) was 8.7 nM, the “% Activity” value (mouse NMUR1-ATG; [3]) was 98% and the EC50 (dog NMUR1-ATG) was 11.6 nM. For the same compound, the “% Activity” value (dog NMUR1-ATG; [3]) was 101%, the EC50 (human NMUR1) was 11.4 nM and the “% Activity” value (human NMUR1; human NMUR1, maximum response at 1 μM compared to the human NMU-25 response at the same concentration) was 97%.
Work on “Ac-C2ILQRGSGTAAVDFTKKDHTATWGRPFFLFRPRN-CONH2 (Ac-C([maleimide-(PEG)2 40 kDa])ILQRGSGTAAVDFTKKDHTATWGRPFFLFRPRN-NH2) [NMS1, C2 = Cys(PEG)240 kDa, cysteine PEGylated via the side-chain thiol with a branched PEG]” yielded an EC50 (mouse NMUR2) of 29.1 nM, an EC50 (human NMUR2) of 397 nM and an EC50 (dog NMUR2) of 22.5 nM. The EC50 (mouse NMUR1-ATG) was 589 nM, the “effects on food intake and body weight” value ([1]; Nmur2 knockout animals, FIGS. 9A and 9B) was “only overnight effects” and the food intake ([1]; acute administration, Nmur1/Nmur2 double knockout animals, FIG. 8A) was “no effect”. For the same compound, the body weight ([1]; acute administration, Nmur1/Nmur2 double knockout animals, FIG. 8B) was “no effect”, the anorectic efficacy ([1]; acute administration, wild-type animals) was “highly efficacious” and the body weight (mice; NMS1 compared to NMU9, FIG. 7B) was “Significant reductions”. For the same compound, the overnight food intake (mice; [4]) was “significantly reduced”, the body weight (mice; [5]) was “Significant reductions” and the “duration of significant reduction of food intake” value (mice; [4]) was “three days post-dose”. For the same compound, the food intake (mice; dose response, NMS1 versus NMU9, FIG. 7A) was “reduced food intake for at least three days post-dose in a dose-dependent manner”, the EC50 (dog NMUR1-ATG) was 18.5 nM and the EC50 (human NMUR1) was 141 nM.
“Ac-C4ILQRGSGTAAVDFTKKDHTATWGRPFFLFRPRN-CONH2 (Ac-C([maleimide-PEG 40 kDa])ILQRGSGTAAVDFTKKDHTATWGRPFFLFRPRN-NH2) [NMS4, C4 = Cys(PEG)40 kDa, cysteine PEGylated via the side-chain thiol with a linear PEG]” gave an EC50 (mouse NMUR2) of 19.4 nM, an EC50 (human NMUR2) of 103 nM and an EC50 (dog NMUR2) of 3.1 nM. For the same compound, the EC50 (mouse NMUR1-ATG) was 66.2 nM, the overnight food intake (mice; [4]) was “significantly reduced” and the body weight (mice; [5]) was “Significant reductions”. The “duration of significant reduction of food intake” value (mice; [4]) was “two days post-dose”, the EC50 (dog NMUR1-ATG) was 13.1 nM and the EC50 (human NMUR1) was 73.9 nM.
For “NMU: Neuromedin U; full length 25-mer (NMU-25) in humans (FRVDEEFQSPFASQSRGYFLFRPRN; ends and bridges not checked; UniProt P48645 142-166, looked up)”, the food intake [2] was “dose-dependently reduced”.
